Measurements taken from US7250399B2, “Compounds having growth hormone releasing activity” (The Administrators of the Tulane Educational Fund, priority 1998, dated 2007).
Values joined by “and” are separate entries in the source; they are usually repeats but may differ in a detail not shown here. Identical values can stand only once. Square brackets hold non-standard residues; d marks the D form. Ends that are not written are not given here. d2Nal = N[C@H](Cc1ccc2ccccc2c1)C(=O)O

Tests used:
Growth Hormone release [1] = assay: In Vitro Release of Growth Hormone in Rat; format: cell-based
Method: (§1) In vitro and in vivo activity of certain compounds were determined in rats and adult beagle dogs (in vivo activity only).

Growth Hormone release [2] = assay: In Vivo GH Release in Rats (i.v., serum GH by RIA); set-up: species or system Sprague-Dawley rats; settings: for In Vivo Release of Growth Hormone in Rat, GH: i.v., serum 10 min after injection
Method: Immature female Sprague-Dawley rats were obtained from the Charles River Laboratories (Wilmington, Mass.). After arrival they were housed at 25° C. with a 14:10 hour light:dark cycle. Water and Purina rat chow were available ad libitum. Pups were kept with their mothers until 21 days of age.
Twenty-six day old rats, six rats per treatment group, were anesthetized interperitoneally with 50 mg/kg of pentobarbital 20 minutes prior to i.v. treatment with peptide. Normal saline with 0.1% gelatin was the vehicle for intravenous (i.v.) injections of the peptides. The anesthetized rats, weighing 55-65 grams, were injected i.v. with the quantity of grown hormone releasing compounds indicated in Table 3. Injection was made as a 0.1 mL solution into the jugular vein.
All animals were sacrificed by guillotine 10 minutes after final test injection (see Table 3). Trunk blood for the determination of blood GH levels was collected following decapitation. After allowing the blood to clot, it was centrifuged and the serum was separated from the clot. Serum was kept frozen until the day of sampling for radioimmunoassay (RIA) determination of growth hormone levels according to the following procedure, as developed by the National Institute of Arthritis, Diabetes and Digestive and Kidney Diseases (NIADDK).
Reagents are generally added to the RIA analysis tubes at a single sitting, at refrigerator temperature (about 4° C.) in the following sequence: • (a) buffer, • (b) “cold” (i.e., non-radioactive) standard or unknown serum sample to be analyzed, • (c) radio-iodinated growth hormone antigen, and • (d) growth hormone antiserum.
Reagent addition is generally carried out so that there is achieved a final RIA tube dilution of about 1:30,000 (antiserum to total liquid volume; vol:vol).
The mixed reagents are then typically incubated at room temperature (about 25° C.) for about 24 hours prior to addition of a second antibody (e.g., goat or rabbit anti-monkey gamma globulin serum) which binds to and causes precipitation of the complexed growth hormone antiserum. Precipitated contents of the RIA tubes are then analyzed for the number of counts in a specified period of time in a gamma scintillation counter. A standard curve is prepared by plotting number of radioactive counts versus growth hormone (GH) level. GH levels of unknown are then determined by reference to the standard curve.
Serum GH was measured by RIA with reagents provided by the National Hormone and Pituitary Program.
Serum levels in Tables 3 and 4 are recorded in ng/mL in terms of the rat GH standard of 0.61 International Units/mg (IU/mg). Data is recorded as the mean ±standard error of the mean (SEM). Statistical analysis was performed with Student's t-test. In Table 3, the results shown are the average of studies with six rats.

Growth Hormone release [3] = assay: In Vivo Release of Growth Hormone in Adult Beagle Dogs; set-up: unit not given here; settings: oral dose 1 mg/kg, 1 mg/kg
Method: as §1

[4] = test system: short-statured children with various degrees of GH deficiency; settings: cited from earlier work

Substance | In Vitro Release of Growth Hormone in Rat, GH (Growth Hormone release [1]; compound at .001 (dose unit not given)) [ng/mL] | In Vitro Release of Growth Hormone in Rat, GH (Growth Hormone release [1]; compound at .003 (dose unit not given)) [ng/mL] | In Vitro Release of Growth Hormone in Rat, GH (Growth Hormone release [1]; compound at .01 (dose unit not given)) [ng/mL] | In Vitro Release of Growth Hormone in Rat, GH (Growth Hormone release [1]; compound at .03 (dose unit not given)) [ng/mL] | In Vitro Release of Growth Hormone in Rat, GH (Growth Hormone release [1]; compound at .1 (dose unit not given)) [ng/mL] | In Vitro Release of Growth Hormone in Rat, GH (Growth Hormone release [1]; compound at .3 (dose unit not given)) [ng/mL] | In Vivo Release of Growth Hormone in Rat, GH (Growth Hormone release [2]; compound at 3 (dose unit not given)) [ng/mL] | In Vivo Release of Growth Hormone in Rat, GH (Growth Hormone release [2]; compound at 10 (dose unit not given)) [ng/mL] | In Vivo Release of Growth Hormone in Rat, GH (Growth Hormone release [2]; compound at 30 (dose unit not given)) [ng/mL] | In Vivo Release of Growth Hormone in Adult Beagle Dogs (Growth Hormone release [3]; time 0.5 hr) | In Vivo Release of Growth Hormone in Adult Beagle Dogs (Growth Hormone release [3]; time 1 hr) | In Vivo Release of Growth Hormone in Adult Beagle Dogs (Growth Hormone release [3]; time 2 hr) | In Vivo Release of Growth Hormone in Adult Beagle Dogs (Growth Hormone release [3]; time 3 hr) | In Vivo Release of Growth Hormone in Adult Beagle Dogs (Growth Hormone release [3]; time 4 hr) | In Vivo Release of Growth Hormone in Adult Beagle Dogs (Growth Hormone release [3]; time 6 hr) | GH ng/ml, GHRP-2 (.03) (Growth Hormone release [2]; rat, GHRP-2 reference standard, dose (.03) (dose unit not given)) [ng/mL] | effect on height velocity compared with chronic recombinant human growth hormone (rhGH) administration ([4]; in vivo) | rate of height velocity ([4]; short-statured children, 2-3 times per day over a 2 year period)
N-2-hydroxylethyl-Aib-DTrp-DPro-diisobutylamide [R^1 = -N-2-OHethyl/DPro-diisobutylamide] | 452 | 326 | 526 | 820 | 1163 | 1217 | 156 | 259 | 451 | 102 and 62 | 26 and 30 | 25 and 19 | 10 | 6.1 and 3.8 | 4.0 and 2.5 |  |  | 
[dA][d2Nal]AW[dF]K-NH2 [GHRP-2] |  |  |  |  |  |  |  |  |  |  |  |  |  |  |  | 811 | less effective | accelerated
